Experiments:
[1] = tested on: Aiolos peptide containing lysine 203; experiment: UbiScan mass spectrometry of ubiquitylated proteins in multiple myeloma cells; format: cell-based
Text: Mass spectrometry of ubiquitylated proteins (Ubiscan™): Cell Signaling Technology's UbiScan™ proteomics platform was used to identify and quantify differences in ubiquitination in primary human T cells untreated (Treatment 1) or treated with Treatment 2 or Treatment 3, and in MM cell lines treated with immunomodulatory compounds in the presence or absence of the proteasome inhibitor MG132. The UbiScan™ method combines the isolation of ubiquitinated peptides from protease digested protein extracts using CST's proprietary immunoaffinity purification method with the identification and quantitation of peptides by liquid chromatography, tandem mass spectrometry (LC-MS/MS). The quantification of ubiquitination is based on the abundance of the ubiquitinated peptides recovered by antibody immunoprecipitation. The abundance or intensity information for each ubiquitinated peptide is based on the peak height of that peptide measured in the MS1 channel. The confidence in the calculated fold change is dependent on a number of factors, an important one being the intensity or peak height of the ubiquitinated peptide. Samples were analyzed by LC-MS/MS on an ORBITRAP VELOS™ mass spectrometer. […] Label-free quantitation was performed by comparing peak intensities of the same peptide ion in each sample to generate their corresponding fold-changes. […]

Ikaros = Ikaros (Homo sapiens, UniProt Q13422); experiment: Ikaros in siCRBN transfected primary CD3+ T cells; format: cell-based; parameters: endogenous in cells; host or cells: U266, DF15 (and other MM lines), primary CD3+ T cells, primary CD19+ B cells; conditions: siCRBN vs siControl, 6/24 hours
Procedure: Primary T cells were isolated from human leukocytes (Blood Center of New Jersey, East Orange, N.J.) by centrifugation through FICOLL® centrifugation medium following the ROSETETTESEP™ protocol (Stem Cell Technologies, Vancouver, Canada). Purified T cells were treated with 1 μg/mL PHA-L (Sigma, St. Louis, Mo.) at 37° C. for 24 hours then transfected with either siCRBN or siAiolos (Invitrogen) (200 nM siRNA/100 μL T buffer/8×10^6 cells/shot×5 shots) using NEON® Transfection System (Invitrogen, Grand Island, N.Y.) with program 2100 voltage+15 width+2 pulse. Low GC content siRNA (Invitrogen, Grand Island, N.Y.) was transfected as negative control. Transfected cells were pooled and cultured in OKT3 (3 μg/mL, eBioscience, San Diego, Calif.) coated 10 cm dish with 20 ml RPMI containing 10% FBS at 37° C. for 24 hours. Cells were collected for measuring CRBN or Aiolos knockdown efficiency by western blot (anti-Aiolos: Santa Cruz, sc-10198, lot.C-0212) and qRT-PCR (Applied Biosystem, gene expression CRBN Hs00372271_ml; IKZF3 ID#:Hs00232635_ml). […] Aiolos and Ikaros protein expression was determined by immunoblot analysis using antibodies against Aiolos (Santa Cruz, Dallas, Tex.) and Ikaros (Millipore, Billerica, Mass.). […] Supernatants were harvested and IL-2 protein detected by ELISA (Thermo Scientific, Lafayette, Colo.). […]

Aiolos [2] = experiment: Aiolos expression in drug treated T cells (FIG. 48); format: cell-based, human; conditions: all of the respective cells tested (FIGS. 47, 48)
Procedure: Primary T cells from up to 3 donors were isolated from human leukocytes (Blood Center of New Jersey, East Orange, N.J.) by centrifugation through FICOLL® following the ROSETETTESEP™ protocol (Stem Cell Technologies, Vancouver, Canada). Purified T cells were stimulated with anti-CD3 Antibody (Ebioscience, San Diego, Calif.), drug treated for six hours, harvested and Aiolos and Ikaros protein expression was determined by immunoblot analysis using antibodies against Aiolos (Santa Cruz, Dallas, Tex.) and Ikaros (Millipore, Billerica, Mass.) with our without blocking peptide.

Aiolos [3] = experiment: Aiolos inhibition by cohort in cancer patients, flow cytometry; format: in vivo, human; conditions: by time and dose
Procedure: Cancer patients were administered Compound A at doses of 0.5 mg, 1 mg, 1.5 mg, 2 mg, 2.5 mg, 3 or 3.5 mg. Blood samples were drawn immediately prior to dosing and 1.5 hr and 5 hr post single dose of Compound A. Peripheral blood mononuclear cells were FICOLL®-isolated from whole blood samples and viably frozen in DMSO. The cells were washed twice with 2 mL of cold phosphate buffer saline (PBS), then permeabilized by adding 2 mL of cold BD CYTOFIX/CYTOPERM™ buffer and incubated on ice for 15 minutes. The cells were centrifuged then washed twice with BD PERM/WASH™ buffer, then resuspended in 40 μl of BD PERM/WASH™ buffer. Cells were stained with anti-CD3 or anti-CD19 antibody, and 20 μl of anti-Aiolos Ab (Santa Cruz Santa Cruz, rabbit polyclonal IgG, cat#sc-101982 at 1:200 dilution with staining buffer), or 20 μL of appropriate isotype controls to cells. Cells were mixed thoroughly and incubated at room temperature for 30 minutes in the dark, washed once with BD perm/wash buffer, then resuspended in […] of BD PERM/WASH™ buffer, and 20 μL of secondary antibody was added before analysis on a flow cytometer.

Ikaros, sequence (Q13422 whole entry): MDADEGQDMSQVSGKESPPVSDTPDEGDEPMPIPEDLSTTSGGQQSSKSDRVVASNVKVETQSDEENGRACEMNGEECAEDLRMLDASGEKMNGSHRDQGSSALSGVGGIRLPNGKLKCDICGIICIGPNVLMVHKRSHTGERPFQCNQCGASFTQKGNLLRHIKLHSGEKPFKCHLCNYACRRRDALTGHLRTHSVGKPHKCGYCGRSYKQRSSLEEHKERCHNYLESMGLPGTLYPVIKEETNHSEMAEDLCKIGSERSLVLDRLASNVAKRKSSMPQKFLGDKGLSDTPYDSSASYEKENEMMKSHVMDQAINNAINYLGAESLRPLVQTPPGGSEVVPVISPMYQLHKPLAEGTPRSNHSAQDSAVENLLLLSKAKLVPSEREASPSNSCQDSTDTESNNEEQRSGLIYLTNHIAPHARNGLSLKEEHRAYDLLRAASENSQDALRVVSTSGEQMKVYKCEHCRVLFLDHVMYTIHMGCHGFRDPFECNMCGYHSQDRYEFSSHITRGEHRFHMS

## Nc1cccc2c1CN(C1CCC(=O)NC1=O)C2=O (centres unmarked) [lenalidomide]
[1]
  Ubiquitination of Aiolos peptide containing lysine 203: enhance the ubiquitination of Aiolos peptide containing lysine 203
Ikaros
  Effect in reducing or inhibiting the expression of Ikaros where CRBN is knocked-down: significantly reduced as compared to the control cells with no CRBN knock-down

## Nc1cccc2c1C(=O)N(C1CCC(=O)NC1=O)C2=O (centres unmarked) [pomalidomide, reference compound]
[1]
  Ubiquitination of Aiolos peptide containing lysine 203: enhance the ubiquitination of Aiolos peptide containing lysine 203
Ikaros
  Effect in reducing or inhibiting the expression of Ikaros where CRBN is knocked-down: significantly reduced as compared to the control cells with no CRBN knock-down

## O=C1CC[C@H](N2Cc3c(OCc4ccc(CN5CCOCC5)cc4)cccc3C2=O)C(=O)N1 [Compound B, 3-(4-((4-(morpholinomethyl)benzyl)oxy)-1-oxoisoindolin-2-yl)piperidine-2,6-dione]
Aiolos [2]
  Aiolos expression: reduced the expression of Aiolos and Ikaros

## Cc1nc2cccc(N)c2c(=O)n1C1CCC(=O)NC1=O (centres unmarked) [Compound A, 3-(5-amino-2-methyl-4-oxo-4H-quinazolin-3-yl)-piperidine-2,6-dione]
Aiolos [3]
  Aiolos inhibition in B cells: Aiolos inhibition correlates with Compound A exposure
  Aiolos inhibition in T cells: Aiolos inhibition correlates with Compound A exposure
Aiolos [2]
  Aiolos expression: reduced the expression of Aiolos and Ikaros

Source: patent US9857359B2, “Methods for determining drug efficacy using cereblon-associated proteins” (CELGENE CORPORATION, priority 2012, dated 2018)
